Assay results reported in patent publication US20130224286A1, “METHODS AND COMPOSITIONS FOR TREATING POX VIRUS INFECTIONS” (priority 2010, published 2013).

What was measured:
HaCaT cells [1] = assay: Toxicity on cells, MTT assay (Example 4, FIG. 3); assay type: cell-based, human; details: 1 day exposure
Protocol: Toxicity of test compounds on uninfected cell monolayers was measured using the standard tetrazolium dye MTT.
Test of various agents (BP: Benzoyl peroxide), at the indicated concentrations on triplicates of HaCaT cells in 96-well plates (FIG. 3).
Toxicity on cells (left side of panel): Cell monolayers were exposed to agents as indicated, and 1 day later, cellular viability was analysed by a standard MTT assay (control OD was between 1.15 and 1.3).

Vaccinia virus [2] = assay type: cell-based
Vaccinia virus [3] = assay: Direct virocidal effect on Vaccinia virus, 24 h exposure, BS-C-1 plaque assay (Example 6, FIG. 5); assay type: cell-based; details: 50 μM, 24 h at 37° C.
Protocol: Direct virocidal effect of various agents on Vaccinia virus (24 h exposure) Triplicates of Vaccinia virus in a 96-well plate were incubated with agents at 50 μM final concentration for 24 h at 37° C. After incubation, virus was diluted 1000-fold and quantified in a standard 24-well BS-C-1 plaque assay.
The various agents used were as follows: BP: Benzoyl peroxide, D: Dicoumarol, DNCB: Dinitrochlorobenzene, DNFB: Dinitrofluorobenzene, K1: Vitamin K1, K2: Vitamin K2, Menadione (M is fresh, M* is Menadione kept at RT for 2 months), MBS: Menadione bisulfite and Control.

Molluscum contagiosum = assay: Treatment of a patient with Molluscum contagiosum lesions (topical painting); assay type: in vivo, human; details: 50 mM in DMSO painted on lesions, one to two times per day for 5 days, after 4 weeks
Protocol: A patient, previously treated for Molluscum contagiosum infection with curettage, had two recurrences of Molluscum contagiosum. In each instance, a number of early lesions, which where in the elbow region or the lower jaw region respectively, were treated one to two times per day for 5 consecutive days. Treatment consisted of painting the lesions with a cotton stick, applying a solution of 50 mM Menadione dissolved in DMSO to the tip of the lesion. […] Concentrations of Menadione, its analogues and additional compounds used in this invention are as indicated below: […]

Vaccinia virus WR = assay type: cell-based
HaCaT cells [4] = details: 25 μM, 1 day, MTT

Structure (SMILES)	cell toxicity (HaCaT cells [1])	virus replication (Vaccinia virus [2])	reduction of virus infectivity (direct virocidal effect) (Vaccinia virus [3])	state of the skin after treatment of Molluscum contagiosum lesions (Molluscum contagiosum)	virus progeny (Vaccinia virus WR)	effect on cell viability (HaCaT cells [4])
O=C(OOC(=O)c1ccccc1)c1ccccc1 [BP, Benzoyl peroxide]	dose-dependent cell toxicity	inhibition of virus replication	43%	–	–	–
O=c1oc2ccccc2c(O)c1Cc1c(O)c2ccccc2oc1=O [Dicoumarol]	dose-dependent cell toxicity	inhibition of virus replication	–	–	–	–
CC1=CC(=O)c2ccccc2C1=O [Menadione, 2-methyl-1,4-naphthoquinone]	–	–	–	normal and without scar or discoloration	reduced virus progeny in a dose-dependend manner	< 30%
Oc1ccc(O)cc1 [Hydroquinone]	no effect	no effect	–	–	–	–
CC1(S(=O)(=O)[O-])CC(=O)c2ccccc2C1=O.[Na+] (centres unmarked) [Menadione bisulfite]	dose-dependent cell toxicity	inhibition of virus replication	95%	–	reduced virus progeny in a dose-dependend manner	–
